Biological target: NTS1R (Homo sapiens, UniProt P30989)
Assay: Flow cytometric (FC) association and dissociation kinetics, suspended CHO-hNTS1R cells
Assay type: binding
Details: FC (suspension); for koff: 23 °C, read-out: koff [min^–1] (converted); for kon: calculated from kobs, koff and ligand concentration, read-out: kon [min^–1 nM^–1] (converted)
Experimental: Flow cytometry-based NTS1R binding studies were performed with intact CHO-hNTS1R (all kind of experiments) and HT-29 cells (only saturation binding) using a BD FACSCanto II (Becton Dickinson, Heidelberg, Germany), equipped with an argon laser (488 nm) and a red diode laser (640 nm), and a BD High Throughput Sampler (HTS unit) for microtiter plates. Saturation and competition binding experiments were performed in triplicate in 96-well polypropylene plates (Brand 701330, Wertheim, Germany) using the HTS unit for sample injection. Association and dissociation experiments were performed in duplicate in 5 mL polypropylene tubes (VWR, Radnor) using the standard injection port of the flow cytometer. The following gain settings for forward and sideward scatter were applied: FSC, 0 V; SSC, 252 V. Fluorescence was recorded using the PE-channel (excitation: 488 nm, emission: 585 ± 21) nm with a PMT gain of 330–400 V. For measurements using the HTS unit, 45 μL of the sample were injected with a speed of 1.5 μL/s. For measurements, requiring the use of the standard injection port, the medium flow rate ([…]) was used. Measurements were stopped after 30 s (HTS unit) or after counting of 500–3000 gated events (standard injection port).
Cells were seeded in T75 culture flasks 3–4 days (CHO-hNTS1R cells) or 5–6 days (HT-29 cells) prior to the experiment. On the day of the experiment, cells were detached by trypsinization, suspended in DPBS1 and centrifuged at 200g at rt for 5 min. […]
5 mL polypropylene tubes were prefilled with 2000 μL of cell suspension and DMSO/H2O 2:8 v/v (20 μL) were added (determination of total binding). […] Specific binding data, obtained by subtracting triplicate mean values of unspecific binding from triplicate mean values of total binding, were plotted against the time and analyzed by a three-parameter equation describing an exponential rise to a maximum (one-phase association, Y0 constrained to zero, GraphPad Prism 5) to yield the observed association rate constant kobs. […]
5 mL polypropylene tubes were prefilled with 2000 μL of cell suspension. […] After different periods of time (1–240 min), sample aliquots were measured by placing the tube in the injection port of the flow cytometer. Specific binding data, obtained by subtracting triplicate mean values of unspecific binding from triplicate mean values of total binding, were plotted against the time and analyzed by a three-parameter equation describing an incomplete monophasic exponential decline (one phase decay, GraphPad Prism 5) to obtain koff values. […]
The kon and Kd(kin) values were calculated as described for high-content imaging binding experiments.

Sequence of NTS1R (P30989 whole entry): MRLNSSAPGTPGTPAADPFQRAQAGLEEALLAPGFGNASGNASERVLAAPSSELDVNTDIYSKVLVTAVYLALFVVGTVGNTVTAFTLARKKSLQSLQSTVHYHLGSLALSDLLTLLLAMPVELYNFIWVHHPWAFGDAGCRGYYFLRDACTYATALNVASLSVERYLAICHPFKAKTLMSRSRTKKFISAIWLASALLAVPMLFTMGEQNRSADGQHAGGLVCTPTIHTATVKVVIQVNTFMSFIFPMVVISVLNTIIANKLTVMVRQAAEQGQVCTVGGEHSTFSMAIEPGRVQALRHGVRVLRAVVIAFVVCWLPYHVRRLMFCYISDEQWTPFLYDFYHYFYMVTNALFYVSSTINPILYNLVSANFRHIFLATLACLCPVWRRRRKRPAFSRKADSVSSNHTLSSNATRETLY

SMILES | koff | kon
CCC(=O)NCCCCNC(=O)N=C(N)NCCC[C@H](NC(=O)[C@@H]1CCCN1C(=O)[C@@H](NC(=O)CCc1cn(CCCNC(=O)c2ccc(-c3c4ccc(=[N+](C)C)cc-4oc4cc(N(C)C)ccc34)c(C(=O)[O-])c2)nn1)C1CCNCC1)C(=O)N[C@@H](CCCNC(=N)N)C(=O)N1CCC[C@H]1C(=O)N[C@@H](Cc1ccc(O)cc1)C(=O)N[C@H](C(=O)N[C@@H](CC(C)C)C(=O)O)[C@@H](C)CC [Compound 13, N^α-(3-(1-N-((1-Carboxylato-2-(6-(dimethylamino)-3-(dimethyliminio)-3H-xanthen-9-yl)phen-5-yl)1-oxomethyl)aminoprop-3-yl-1H-1,2,3-triazol-4-yl)propanoyl)-2-(piperidin-4-yl)-Gly-Pro-N^ω-[(4-(N-propanoyl)aminobutyl)aminocarbonyl]Arg-Arg-Pro-Tyr-Ile-Leu Tris(hydrotrifluoroacetate)] | 0.000333 s⁻¹ | 8e+06 M⁻¹ s⁻¹
CCC(=O)NCCCCNC(=O)NC(=N)NCCC[C@H](NC(=O)[C@@H]1CCCN1C(=O)[C@@H](NC(=O)CCc1cn(CCCNC(=O)CCC#Cc2ccc3c(c2)C(C)(C)C2=C4C=C5C6=[N+](CCC5OC4CCN23)c2ccc(S(=O)(=O)[O-])cc2C6(C)C)nn1)C1CCNCC1)C(=O)N[C@@H](CCCNC(=N)N)C(=O)N1CCC[C@H]1C(=O)N[C@H](C(=O)N[C@H](C(=O)N[C@@H](CC(C)C)C(=O)O)[C@@H](C)CC)C(C)(C)c1ccc(O)cc1 (stereo partly drawn) [Compound 18, N^α-(3-(N-(1-(8-Sulfonato-5,5,27,27-tetramethyl-16-oxa-20-aza-12-azoniaheptacyclo[15.11.0.03,15.04,12.06,11.020,28.021,26]octacosa-1(28),2,4(12),6(11),7,9,21(26),22,24-nonaen-24-yl)-5-oxopentyn-5-yl)-1-aminoprop-3-yl-1H-1,2,3-triazol-4-yl)propanoyl)-2-(piperidin-4-yl)-Gly-Pro-N^ω-[(4-(N-propanoyl)aminobutyl)aminocarbonyl]Arg-Arg-Pro-β,β-dimethyl-L-Tyr-Ile-Leu Tris(hydrotrifluoroacetate)] | 0.0004 s⁻¹ | 2.67e+06 M⁻¹ s⁻¹

From publication PMC11440508, “Dually Labeled Neurotensin NTS1R Ligands for Probing Radiochemical and Fluorescence-Based Binding Assays” (Journal of Medicinal Chemistry, 2024)
